Assay results from PubChem BioAssay (NCI).
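In this assay, cells in 96-well plates receive the compound at five concentrations for 48 hours. Endpoints are linearly interpolated between the surrounding concentrations. GI50 is the concentration that inhibits growth by half. TGI is the concentration that stops growth completely.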

Columns and labels:
Assay in all cases: DTP human tumour cell line panel, 48 h
[1] = test system: A549 NSCLC
[2] = test system: CAKI-1 renal
[3] = test system: DU-145 prostate
[4] = test system: HCT-116 colon
[5] = test system: HCT-15 colon
[6] = test system: HL-60(TB) leukemia
[7] = test system: HOP-62 NSCLC
[8] = test system: HS 578T breast
[9] = test system: HT29 colon
[10] = test system: IGROV1 ovarian
[11] = test system: KM12 colon
[12] = test system: LOX IMVI melanoma
[13] = test system: MALME-3M melanoma
[14] = test system: MCF7 breast
[15] = test system: MDA-MB-231 breast
[16] = test system: MDA-MB-435
[17] = test system: MOLT-4 leukemia
[18] = test system: NCI-H460 lung
[19] = test system: NCI/ADR-RES ovarian
[20] = test system: OVCAR-3 ovarian
[21] = test system: OVCAR-5 ovarian
[22] = test system: PC-3 prostate
[23] = test system: RPMI-8226 leukemia
[24] = test system: SF-268 CNS
[25] = test system: SF-539 CNS
[26] = test system: SNB-19 CNS
[27] = test system: SR leukemia
[28] = test system: SW-620 colon
[29] = test system: T-47D breast
[30] = test system: 786-0 renal
[31] = test system: A498 renal
[32] = test system: ACHN renal
[33] = test system: BT-549 breast
[34] = test system: CCRF-CEM leukemia
[35] = test system: COLO 205 colon
[36] = test system: EKVX NSCLC
[37] = test system: HCC-2998 colon
[38] = test system: HOP-92 NSCLC
[39] = test system: K-562 leukemia
[40] = test system: M14 melanoma
[41] = test system: NCI-H226 lung
[42] = test system: NCI-H23 lung
[43] = test system: NCI-H522 lung
[44] = test system: OVCAR-4 ovarian
[45] = test system: OVCAR-8 ovarian
[46] = test system: RXF 393 renal
[47] = test system: SF-295 CNS
[48] = test system: SK-MEL-2 melanoma
[49] = test system: SK-MEL-28 melanoma
[50] = test system: SK-MEL-5 melanoma
[51] = test system: SK-OV-3 ovarian
[52] = test system: SN12C renal
[53] = test system: SNB-75 CNS
[54] = test system: TK-10 renal
[55] = test system: U251 CNS
[56] = test system: UACC-257 melanoma
[57] = test system: UO-31 renal

In the case of `CCCCOc1ccc(S(=O)(=O)N2CCN(c3nc(C)cc(N4CCOCC4)n3)CC2)cc1`, the GI50 [1] was 3.85 µM, the TGI [1] was greater than 100 µM and the GI50 [2] was 2.11 µM. For the same molecule, the TGI [2] was greater than 100 µM, the GI50 [3] was 1.01 µM and the TGI [3] was greater than 100 µM. It also gave a GI50 [4] of 1.44 µM, a TGI [4] greater than 100 µM and a GI50 [5] of 2.09 µM. It also gave a TGI [5] greater than 100 µM, a GI50 [6] of 0.42 µM and a TGI [6] greater than 100 µM. For the same molecule, the GI50 [7] was greater than 100 µM, the TGI [7] was greater than 100 µM and the GI50 [8] was greater than 100 µM. For the same molecule, the TGI [8] was greater than 100 µM, the GI50 [9] was 0.888 µM and the TGI [9] was 6.23 µM. The GI50 [10] was 1.09 µM, the TGI [10] was greater than 100 µM and the GI50 [11] was 3.12 µM. For the same molecule, the TGI [11] was greater than 100 µM, the GI50 [12] was 0.294 µM and the TGI [12] was 0.942 µM. For the same molecule, the GI50 [13] was greater than 100 µM, the TGI [13] was greater than 100 µM and the GI50 [14] was greater than 100 µM. For the same molecule, the TGI [14] was greater than 100 µM, the TGI [15] was greater than 100 µM and the GI50 [16] was 1.45 µM. For the same molecule, the TGI [16] was greater than 100 µM, the GI50 [17] was 2.27 µM and the TGI [17] was greater than 100 µM. It also gave a GI50 [18] of 1.67 µM, a TGI [18] greater than 100 µM and a GI50 [19] of 2.45 µM. It also gave a TGI [19] greater than 100 µM, a GI50 [20] greater than 100 µM and a TGI [20] greater than 100 µM. The GI50 [21] was greater than 100 µM, the TGI [21] was greater than 100 µM and the GI50 [22] was 4.54 µM. The TGI [22] was greater than 100 µM, the GI50 [23] was 2.64 µM and the TGI [23] was greater than 100 µM. It also gave a GI50 [24] of 2.32 µM, a TGI [24] greater than 100 µM and a GI50 [25] greater than 100 µM. For the same molecule, the TGI [25] was greater than 100 µM, the GI50 [26] was greater than 100 µM and the TGI [26] was greater than 100 µM. For the same molecule, the GI50 [27] was 5.46 µM, the TGI [27] was greater than 100 µM and the GI50 [28] was 2.33 µM. It also gave a TGI [28] greater than 100 µM, a GI50 [29] greater than 100 µM and a TGI [29] greater than 100 µM.
Work on `CCCCNNC(=O)c1ccc(-c2cccc(F)c2F)cc1` yielded a GI50 [30] of 3.75 µM, a TGI [30] of 18.9 µM and a GI50 [31] of 1.04 µM. The TGI [31] was 2.92 µM, the GI50 [1] was 3.36 µM and the TGI [1] was 18.4 µM. The GI50 [32] was 2.3 µM, the TGI [32] was 7.06 µM and the GI50 [33] was 5.11 µM. It also gave a TGI [33] greater than 100 µM, a GI50 [2] of 2.76 µM and a TGI [2] of 6.02 µM. The GI50 [34] was 3.08 µM, the TGI [34] was greater than 100 µM and the GI50 [35] was 1.82 µM. The TGI [35] was 5.56 µM, the GI50 [3] was 2.43 µM and the TGI [3] was 43.8 µM. For the same molecule, the GI50 [36] was 3.32 µM, the TGI [36] was 56.3 µM and the GI50 [37] was 1.48 µM. For the same molecule, the TGI [37] was 4.11 µM, the GI50 [4] was 2.57 µM and the TGI [4] was 11.4 µM. For the same molecule, the GI50 [5] was 3.08 µM, the TGI [5] was 17 µM and the GI50 [6] was 1.07 µM. It also gave a TGI [6] of 16.1 µM, a GI50 [7] of 3.09 µM and a TGI [7] greater than 100 µM. The GI50 [38] was 1.04 µM, the TGI [38] was 5.67 µM and the GI50 [8] was 2.44 µM. It also gave a TGI [8] of 82.4 µM, a GI50 [9] of 2.58 µM and a TGI [9] greater than 100 µM. For the same molecule, the GI50 [10] was 2.02 µM, the TGI [10] was 11.1 µM and the GI50 [39] was 1.29 µM. It also gave a TGI [39] greater than 100 µM, a GI50 [11] of 4.04 µM and a TGI [11] of 16.1 µM. The GI50 [40] was 2.93 µM, the TGI [40] was 20.8 µM and the GI50 [13] was 0.613 µM. For the same molecule, the TGI [13] was 5.28 µM, the GI50 [14] was 0.776 µM and the TGI [14] was 17.5 µM. It also gave a GI50 [15] of 5.49 µM, a TGI [15] of 34.3 µM and a GI50 [16] of 2.23 µM. It also gave a TGI [16] of 8.25 µM, a GI50 [17] of 2.49 µM and a TGI [17] greater than 100 µM. For the same molecule, the GI50 [41] was 2.58 µM, the TGI [41] was 17.1 µM and the GI50 [42] was 2.39 µM. The TGI [42] was 18.2 µM, the GI50 [18] was 2.71 µM and the TGI [18] was 21.3 µM. For the same molecule, the GI50 [43] was 2.3 µM, the TGI [43] was 20.7 µM and the GI50 [19] was 0.999 µM. For the same molecule, the TGI [19] was 6.67 µM, the GI50 [44] was 4.03 µM and the TGI [44] was greater than 100 µM. It also gave a GI50 [21] of 2.02 µM, a TGI [21] of 16.7 µM and a GI50 [45] of 1.49 µM. For the same molecule, the TGI [45] was greater than 100 µM, the GI50 [22] was 3.56 µM and the TGI [22] was 27.4 µM. For the same molecule, the GI50 [23] was 0.8 µM, the TGI [23] was 7.88 µM and the GI50 [46] was 1.31 µM. The TGI [46] was 3.67 µM, the GI50 [24] was 4.26 µM and the TGI [24] was 18.7 µM. For the same molecule, the GI50 [47] was 2 µM, the TGI [47] was 4.78 µM and the GI50 [25] was 3.19 µM. For the same molecule, the TGI [25] was 65.6 µM, the GI50 [48] was 3.1 µM and the TGI [48] was 53.6 µM. It also gave a GI50 [49] of 2.75 µM, a TGI [49] of 63.7 µM and a GI50 [50] of 1.8 µM. The TGI [50] was 3.71 µM, the GI50 [51] was 4.12 µM and the TGI [51] was 42.5 µM. It also gave a GI50 [52] of 4.29 µM, a TGI [52] of 79.9 µM and a GI50 [26] of 3.23 µM. It also gave a TGI [26] of 19.8 µM, a GI50 [53] of 0.894 µM and a TGI [53] of 8.29 µM. It also gave a GI50 [27] of 1.77 µM, a TGI [27] of 57.3 µM and a GI50 [28] of 2.92 µM. The TGI [28] was 12.5 µM, the GI50 [29] was 1.14 µM and the TGI [29] was greater than 100 µM. The GI50 [54] was 0.959 µM, the TGI [54] was 7.9 µM and the GI50 [55] was 2.58 µM. It also gave a TGI [55] of 15.2 µM, a GI50 [56] of 1.39 µM and a TGI [56] of 31.3 µM. The GI50 [57] was 1.78 µM and the TGI [57] was 7.25 µM.
